Data from patent publication US6815443B2, “5-Amino-1-pentene-3-ol substituted derivatives” (Gruenenthal GmbH, priority 2000, dated 2004).

Assays:
gabapentin binding site = assay: gabapentin binding assay (displacement of gabapentin from its binding site)
Procedure: Gabapentin is used in the binding assay in order to investigate the binding and affinities of the selected compounds. The affinity of the compounds according to the invention is measured via the displacement of gabapentin from its binding site.

[1] = tested on: phenylquinone-induced writhing in male NMRI mice; assay: phenylquinone-induced writhing test in mice; type: in vivo
Procedure: The investigation of the analgesic efficacy was carried out according to the phenylquinone-induced writhing test in mice (as modified by I. C. Hendershot and J. Forsaith J. Pharmacol. Exp. Ther. 1959 125, 237-240). For this purpose male NMRI mice weighing 25 to 30 g were used. Groups of 10 animals per substance dose received, 10 minutes after intravenous administration of the test substances, 0.3 ml/mouse of a 0.02% aqueous solution of phenylquinone (phenyl benzoquinone, from Sigma, Deisenhofen; solution prepared by addition of 5% of ethanol and storage in a water bath at 45° C.) applied intraperitoneally. The animals were placed individually in observation cages. The number of pain-induced stretching movements (so-called writhing reactions=contortion of the body accompanied by stretching of the rear extremities) was counted using a push-button counter 5 to 20 minutes after administration of the phenylquinone. Animals that had received only physiological saline served as controls. The number of responding animals was determined for some of the examples.

SMILES | % Inhibition gabapentin, 10 μmole (gabapentin binding site) [%] | Responding Animals/Control Animals (Writhing IV) ([1]; 10 mg/kg) | other results
CC(=Cc1ccccc1)C(O)(c1ccccc1)C(C)CN(C)C (centres unmarked) [Example 120, 5-dimethylamino-2,4-dimethyl-1,3-diphenyl-pent-1-en-3-ol] | 37 | – | –
CC(=Cc1ccccc1)C(O)(Cc1cccc(C)c1)C(C)CN(C)C (centres unmarked) [Example 152, 5-dimethylamino-2,4-dimethyl-3-(3-methylbenzyl)-1-phenyl-pent-1-en-3-ol] | 30 | – | –
CC(=Cc1ccccc1)C(O)(Cc1cccc(Cl)c1)C(C)CN(C)C (centres unmarked) [Example 156, 3-(3-chlorobenzyl)-5-dimethylamino-2,4-dimethyl-1-phenyl-pent-1-en-3-ol] | 46 | – | –
COc1cccc(CC(O)(C(C)=Cc2ccc(F)cc2)C(C)CN(C)C)c1 (centres unmarked) [Example 184, 5-dimethylamino-1-(4-fluorophenyl)-3-(3-methoxybenzyl)-2,4-dimethyl-pent-1-en-3-ol] | 47 | – | –
COc1cccc(CC(O)(C(C)=Cc2ccc(Cl)cc2)C(C)CN(C)C)c1 (centres unmarked) [Example 223, 1-(4-chlorophenyl)-5-dimethylamino-3-(3-methoxybenzyl)-2,4-dimethyl-pent-1-en-3-ol] | 40 | – | –
COc1cccc(C=C2CCCCC(CN(C)C)C2(O)c2ccc(Cl)cc2)c1 (centres unmarked) [Example 353, 1-(4-chlorophenyl)-2-dimethylaminomethyl-7-(3-methoxy-benzylidene)-cycloheptanol] | 44 | – | –
COc1ccc(C2(O)C(=Cc3cccc(OC)c3)CCCCC2CN(C)C)cc1 (centres unmarked) [Example 369, 2-dimethylaminomethyl-7-(3-methoxybenzylidene)-1-(4-methoxyphenyl)-cycloheptanol] | 43 | – | –
CN(C)CC1CCCCC(=Cc2ccccc2)C1(O)c1cccc(O)c1.Cl (centres unmarked) [Example 407, 2-benzylidene-7-dimethylaminomethyl-1-(3-hydroxyphenyl)-cycloheptanol, hydrochloride] | – | – | Responding Animals/Control Animals (Writhing IV) ([1]; 2.15 mg/kg): 6/10 (2.15 mg/kg)
COc1cccc(C=C2CCCCC(CN(C)C)C2(O)c2cccc(O)c2)c1.Cl (centres unmarked) [Example 408, 2-dimethylaminomethyl-1-(3-hydroxyphenyl)-7-(3-methoxy-benzylidene)-cycloheptanol, hydrochloride] | – | 9/10 (10 mg/kg) | –
COc1cccc(C2(O)C(=Cc3ccccc3)CCCCC2CN(C)C)c1.Cl (centres unmarked) [Example 409, 2-benzylidene-7-dimethylaminomethyl-1-(3-methoxyphenyl)-cycloheptanol, hydrochloride] | – | 5/10 (10 mg/kg) | –
CC(=Cc1ccccc1)C(O)(c1cccc(O)c1)C(C)CCN(C)C.Cl (centres unmarked) [Example 410, 3-[1-(2-dimethylaminomethyl-1-methylethyl)-1-hydroxy-2-methyl-3-phenyl-allyl]-phenol, hydrochloride] | – | 5/10 (10 mg/kg) | –
CC(=Cc1ccccc1)C(O)(Cc1ccc(Cl)cc1)C(C)CN(C)C.Cl (centres unmarked) [Example 411, 3-(4-chlorobenzyl)-5-dimethylamino-2,4-dimethyl-1-phenyl-pent-1-en-3-ol, hydrochloride] | – | 3/10 (10 mg/kg) | –
COc1cccc(C(O)(C(C)=Cc2ccccc2)C(C)CN(C)C)c1.Cl (centres unmarked) [Example 412, 5-dimethylamino-3-(3-methoxyphenyl)-2,4-dimethyl-1-phenyl-pent-1-en-3-ol, hydrochloride] | – | 9/10 (10 mg/kg) | –
CN(C)CC1CCCC(=Cc2ccccc2)C1(O)c1cccc(O)c1.Cl (centres unmarked) [Example 413, 3-(2-benzylidene-6-dimethylaminomethyl-1-hydroxycyclohexyl)-phenol, hydrochloride] | – | 4/10 (10 mg/kg) | –
